# Tests used:
# [1] = target: T1, NKGD2-MICA (Homo sapiens, UniProt P26718); test: Inhibition of NKG2D (unknown origin)/MICA (unknown origin) protein-protein interaction by cell-based TR-FRET assay
# T1 sequence (P26718 whole entry): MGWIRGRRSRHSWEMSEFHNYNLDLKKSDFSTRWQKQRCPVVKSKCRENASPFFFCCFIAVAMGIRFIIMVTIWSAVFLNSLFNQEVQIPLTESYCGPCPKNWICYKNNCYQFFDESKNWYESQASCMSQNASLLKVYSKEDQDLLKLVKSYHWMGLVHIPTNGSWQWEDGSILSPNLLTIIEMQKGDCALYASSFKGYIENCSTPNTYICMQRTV
# T1 sequence (Q29983 whole entry): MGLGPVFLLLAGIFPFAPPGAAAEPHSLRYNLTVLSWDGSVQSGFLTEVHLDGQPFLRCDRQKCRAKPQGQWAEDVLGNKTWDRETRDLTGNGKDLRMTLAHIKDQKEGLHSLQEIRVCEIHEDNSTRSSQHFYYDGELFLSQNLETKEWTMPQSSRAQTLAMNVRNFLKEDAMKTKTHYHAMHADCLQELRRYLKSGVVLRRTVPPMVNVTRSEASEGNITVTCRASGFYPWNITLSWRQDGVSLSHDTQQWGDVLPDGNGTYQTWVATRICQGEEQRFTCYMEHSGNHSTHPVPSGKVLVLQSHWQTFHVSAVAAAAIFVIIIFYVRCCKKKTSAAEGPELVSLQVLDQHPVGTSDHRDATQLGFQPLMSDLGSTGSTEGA
# [2] = target: T2, NKGD2-ULBP6 (Homo sapiens, UniProt P26718); test: Inhibition of NKG2D (unknown origin)/ULBP6 (unknown origin) protein-protein interaction by cell-based TR-FRET assay
# T2 sequence (P26718 whole entry): T1 sequence (P26718 whole entry)
# T2 sequence (Q5VY80 whole entry): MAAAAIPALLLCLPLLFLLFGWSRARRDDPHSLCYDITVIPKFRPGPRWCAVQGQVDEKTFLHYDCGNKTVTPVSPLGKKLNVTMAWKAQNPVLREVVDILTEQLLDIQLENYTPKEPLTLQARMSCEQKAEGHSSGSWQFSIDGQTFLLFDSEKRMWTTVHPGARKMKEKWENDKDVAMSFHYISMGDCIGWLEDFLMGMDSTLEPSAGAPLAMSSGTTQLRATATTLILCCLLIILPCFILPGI
SMILES,IC50 [1] [µM],IC50 [2] [µM]
CN(C)C(=O)C(NC(=O)c1ccc(-c2ccc(C(F)(F)F)cc2)cc1)c1cccc(C(F)(F)F)c1 (stereo unspecified),> 20,> 20
CN(C)C(=O)C(NC(=O)c1cccc(-c2ccc(C(F)(F)F)cc2)c1)c1cccc(C(F)(F)F)c1 (stereo unspecified),> 20,> 20
CN(C)C(=O)[C@@H](NC(=O)c1cnccc1-c1ccc(C(F)(F)F)cc1)c1ccc(F)c(C(F)(F)F)c1,0.2,0.4
CN(C)C(=O)C(NC(=O)c1ccccc1)c1cccc(C(F)(F)F)c1 (stereo unspecified),> 20,> 20
CN(C)C(=O)[C@@H](NC(=O)c1cnccc1-c1ccc(C(F)(F)F)cc1)c1ccc(Cl)c(C(F)(F)F)c1,0.1,0.3
CN(C)C(=O)[C@@H](NC(=O)c1ccccc1-c1ccc(C(F)(F)F)cc1)c1ccc(Cl)c(C(F)(F)F)c1,0.5,–
Cc1cc([C@H](NC(=O)c2cnccc2-c2ccc(C(F)(F)F)cc2)C(=O)N(C)C)cc(C(F)(F)F)c1,0.1,0.4
O=C(N[C@H](C(=O)N1C[C@@H]2[C@H](CO)[C@@H]2C1)c1cccc(C(F)(F)F)c1)c1ccccc1-c1ccc(C(F)(F)F)cc1,1.6,3.1
O=C(NCc1cccc(C(F)(F)F)c1)c1ccccc1-c1ccc(C(F)(F)F)cc1,> 20,> 20
CN(C)C(=O)[C@@H](NC(=O)c1cc(-c2nnnn2C)ccc1-c1ccc(C(F)(F)F)cc1)c1cccc(C(F)(F)F)c1,0.9,2.4
CN(C)C(=O)[C@@H](NC(=O)c1cnccc1-c1ccc(C(F)(F)F)cc1)c1ccc(Cl)c(Cl)c1,0.2,0.4
CN(C)C(=O)[C@@H](NC(=O)c1cc(-c2nnn[nH]2)ccc1-c1ccc(C(F)(F)F)cc1)c1cccc(C(F)(F)F)c1,0.5,1.5
CN(C)C(=O)[C@@H](NC(=O)c1ccncc1-c1ccc(C(F)(F)F)cc1)c1cccc(C(F)(F)F)c1,1.6,4.8
Cc1ccc([C@H](NC(=O)c2cnccc2-c2ccc(C(F)(F)F)cc2)C(=O)N(C)C)cc1C(F)(F)F,0.3,0.8
CN(C)C(=O)[C@@H](NC(=O)c1ncccc1-c1ccc(C(F)(F)F)cc1)c1cccc(C(F)(F)F)c1,1,3.8
CN(C)C(=O)[C@@H](NC(=O)c1ccccc1-c1ccc(C(F)(F)F)cc1)c1cccc(C(F)(F)F)c1,1.2,2.7

SMILES,IC50 [1] [µM],IC50 [2] [µM]
CN(C)C(=O)[C@@H](NC(=O)c1cnccc1-c1ccc(C(F)(F)F)cc1)c1cc(F)cc(C(F)(F)F)c1,0.2,0.7
CN(C)C(=O)[C@@H](NC(=O)c1cc(-c2ccnn2C)ccc1-c1ccc(C(F)(F)F)cc1)c1cccc(C(F)(F)F)c1,0.3,0.7
Cc1n[nH]c(C)c1-c1ccc(-c2ccc(C(F)(F)F)cc2)c(C(=O)N[C@H](C(=O)N(C)C)c2cccc(C(F)(F)F)c2)c1,0.4,0.6
CN(C)C(=O)[C@@H](NC(=O)c1ccccc1-c1ccc(C(F)(F)F)cc1)c1cccc(N2CC(CC(F)(F)F)C2)c1,1.6,3.4
CN(C)C(=O)[C@@H](NC(=O)c1cnccc1-c1ccc(C(F)(F)F)cc1)c1cccc(C(F)(F)F)c1,0.4,1.4
CC1(C)C[C@H](CO)N(C(=O)C(NC(=O)c2ccccc2-c2ccc(C(F)(F)F)cc2)c2cccc(C(F)(F)F)c2)C1 (stereo partly specified),> 20,> 20
CN(C)C(=O)[C@@H](NC(=O)c1cnccc1-c1ccc(C(F)(F)F)cc1)c1cc(Cl)cc(C(F)(F)F)c1,0.1,0.2
CN(C)C(=O)[C@@H](NC(=O)c1ccccc1-c1ccc(C(F)(F)F)cc1)c1ccc(Cl)cc1,3.3,5.8
CN(C)C(=O)C(c1cccc(C(F)(F)F)c1)N(C)C(=O)c1ccccc1-c1ccc(C(F)(F)F)cc1 (stereo unspecified),> 20,> 20
O=C(NC(C(=O)N1CCC[C@H]1CO)c1cccc(C(F)(F)F)c1)c1ccccc1-c1ccc(C(F)(F)F)cc1 (stereo partly specified),14.5,> 20
Cc1n[nH]cc1-c1ccc(-c2ccc(C(F)(F)F)cc2)c(C(=O)NC(C(=O)N(C)C)c2cccc(C(F)(F)F)c2)c1 (racemic),0.9,2.8
CN(C)C(=O)C(NC(=O)c1cc(-c2ccnn2C2COC2)ccc1-c1ccc(C(F)(F)F)cc1)c1cccc(C(F)(F)F)c1 (racemic),0.5,1.1
O=C(NC(C(=O)N1CCC1)c1cccc(C(F)(F)F)c1)c1ccccc1-c1ccc(C(F)(F)F)cc1 (racemic),3.4,8.2
CN(C)C(=O)C(NC(=O)c1ccccc1-c1ccc(C(F)(F)F)cc1)c1cccc(C(F)(F)F)c1 (racemic),2.2,5
CN(C)C(=O)C(NC(=O)c1cccnc1-c1ccc(C(F)(F)F)cc1)c1cccc(C(F)(F)F)c1 (racemic),> 20,> 20

# The next lines start with the values.
IC50 [1] [µM],IC50 [2] [µM],SMILES
4,8.7,O=C(NC(C(=O)N1CCC[C@@H]1CO)c1cccc(C(F)(F)F)c1)c1ccccc1-c1ccc(C(F)(F)F)cc1 (stereo partly specified)
> 20,> 20,CN(C)C(=O)C(C)(NC(=O)c1ccccc1-c1ccc(C(F)(F)F)cc1)c1cccc(C(F)(F)F)c1 (stereo unspecified)
0.1,0.2,CN(C)C(=O)[C@@H](NC(=O)c1cnccc1-c1ccc(C(F)(F)F)cc1)c1cc(Cl)c(Cl)c(C(F)(F)F)c1
> 20,> 20,CN(C)C(=O)C(NS(=O)(=O)c1ccccc1-c1ccc(C(F)(F)F)cc1)c1cccc(C(F)(F)F)c1 (stereo unspecified)
> 20,> 20,CN(C)C(=O)CNC(=O)c1ccccc1-c1ccc(C(F)(F)F)cc1
1.1,3.1,O=C(N[C@H](C(=O)N1C[C@@H]2[C@@H](CO)[C@@H]2C1)c1cccc(C(F)(F)F)c1)c1ccccc1-c1ccc(C(F)(F)F)cc1
1.8,4.2,CN(C)C(=O)[C@@H](NC(=O)c1ccccc1-c1ccc(C(F)(F)F)cc1)c1cccc(C2CC2)c1
0.2,0.5,CN(C)C(=O)[C@@H](NC(=O)c1cnccc1-c1ccc(C(F)(F)F)cc1)c1cc(C(F)(F)F)cc(C(F)(F)F)c1
> 20,> 20,CN(C)C(=O)C(NC(=O)c1ccccc1-c1ccccc1)c1cccc(C(F)(F)F)c1 (stereo unspecified)
0.4,1.5,CN(C)C(=O)[C@@H](NC(=O)c1nnccc1-c1ccc(C(F)(F)F)cc1)c1cccc(C(F)(F)F)c1
0.7,1.7,CN(C)C(=O)[C@@H](NC(=O)c1cc(C(=O)NS(C)(=O)=O)ccc1-c1ccc(C(F)(F)F)cc1)c1cccc(C(F)(F)F)c1
10.5,> 20,O=C(NC(C(=O)N1CC[C@H](CO)C1)c1cccc(C(F)(F)F)c1)c1ccccc1-c1ccc(C(F)(F)F)cc1 (stereo partly specified)
2.5,5.1,O=C(NC(C(=O)N1CCCC1)c1cccc(C(F)(F)F)c1)c1ccccc1-c1ccc(C(F)(F)F)cc1 (racemic)
> 20,> 20,CN(C)C(=O)C(NC(=O)c1cncnc1-c1ccc(C(F)(F)F)cc1)c1cccc(C(F)(F)F)c1 (racemic)
> 20,> 20,CN(C)C(=O)[C@@H](NC(=O)c1ccccc1-c1ccc(C(F)(F)F)cc1)c1ccccc1 (racemic)

# Reference: ChEMBL document CHEMBL5390216, “Development of small molecule inhibitors of natural killer group 2D receptor (NKG2D)” (Bioorg Med Chem Lett, 2023)
